Reference: PMC8815882, “Screening the pandemic response box identified benzimidazole carbamates, Olorofim and ravuconazole as promising drug candidates for the treatment of eumycetoma” (PLoS Neglected Tropical Diseases, 2022)
Where two headings read alike, the source gives them in different places.

Tested on: M. mycetomatis genome strain MM55
Test: CLSI M38-A2 based in vitro susceptibility screening (XTT or resazurin), growth at fixed concentration
Format: cell-based, Madurella mycetomatis
Conditions: Madurella mycetomatis; for Percent fungal survival at 100 µM: read-out: Percentage survival at 100um, 100 uM A (second replicate column)
[1] = mean of three replicates, read-out: Percentage survival at 25um, 25 uM mean
[2] = replicate A, read-out: Percentage survival at 25um, 25 um A
[3] = replicate B, read-out: Percentage survival at 25um, 25 uM B
[4] = replicate C, read-out: Percentage survival at 25um, 25 uM C
[5] = mean of three replicates, read-out: Percentage survival at 100um, 100 uM mean
[6] = replicate 1, read-out: Percentage survival at 100um, 100 uM A (first replicate column)
[7] = replicate 3, read-out: Percentage survival at 100um, 100 uM A (third replicate column)
[8] = mean of replicates, read-out: Percentage survival at 25um, 25 uM mean
[9] = mean of replicates, read-out: Percentage survival at 100um, 100 uM mean
[10] = replicate 1, read-out: Percentage survival at 100um, 100 uM A
[11] = replicate 2, read-out: Percentage survival at 100um, 100 uM A
[12] = replicate 3, read-out: Percentage survival at 100um, 100 uM A
[13] = first replicate column, read-out: Percentage survival at 100um, 100 uM A
[14] = second replicate column, read-out: Percentage survival at 100um, 100 uM A
[15] = third replicate column, read-out: Percentage survival at 100um, 100 uM A
[16] = mean of replicates, MM55, read-out: Percentage survival at 25um, 25 uM mean
[17] = replicate A, MM55, read-out: Percentage survival at 25um, 25 um A
[18] = replicate B, MM55, read-out: Percentage survival at 25um, 25 uM B
[19] = replicate C, MM55, read-out: Percentage survival at 25um, 25 uM C
[20] = mean of replicates, MM55, read-out: Percentage survival at 100um, 100 uM mean
[21] = replicate 1, MM55, read-out: Percentage survival at 100um, 100 uM A
[22] = replicate 2, MM55, read-out: Percentage survival at 100um, 100 uM A
[23] = replicate 3, MM55, read-out: Percentage survival at 100um, 100 uM A
[24] = mean, read-out: Percentage survival at 25um, 25 uM mean
[25] = mean, read-out: Percentage survival at 100um, 100 uM mean
[26] = replicate (first column), read-out: Percentage survival at 100um, 100 uM A
[27] = replicate (second column), read-out: Percentage survival at 100um, 100 uM A
[28] = replicate (third column), read-out: Percentage survival at 100um, 100 uM A

SMILES | activity at 25 µM [1] [%] | activity at 25 µM [2] [%] | activity at 25 µM [3] [%] | activity at 25 µM [4] [%] | activity at 100 µM [5] [%] | activity at 100 µM [6] [%] | Percent fungal survival at 100 µM (replicate 2) [%] | activity at 100 µM [7] [%] | further results
COc1cc2c(O)c3c(c(-c4ccc5c(c4)OCO5)c2cc1OC)C(=O)OC3 [MMV102270] | 80.6 | 79.5 | 84.8 | 77.5 | 107 | 93.7 | 74.4 | 153 | –
O=C(Nc1nnc(-c2ccc(Cl)cc2)o1)c1nc2ccccc2s1 [MMV102833] | 111 | 134 | 137 | 62.9 | 73.2 | 81.5 | 66.4 | 71.7 | –
CC(C)Nc1ncnc2c1cnn2-c1ccc(Cl)cc1 [MMV108465] | – | 53.4 | 64.9 | 71.1 | – | – | – | – | activity at 25 µM [8]: 63.1%; activity at 100 µM [9]: 22.2%; activity at 100 µM [10]: 0.471%; activity at 100 µM [11]: 1.77%; activity at 100 µM [12]: 64.4%
CCOc1ccc(C(=O)NCCc2ccccc2)cc1 [MMV124656] | 89.4 | 88.1 | 108 | 71.9 | 57.6 | 63.4 | 48.9 | 60.4 | –
Clc1cccc(-c2nnc(-c3ccccc3)o2)c1 [MMV141011] | – | 78.3 | 72.5 | 50.5 | – | – | – | – | activity at 25 µM [8]: 67.1%; activity at 100 µM [9]: 67.1%; activity at 100 µM [10]: 58.8%; activity at 100 µM [11]: 65.1%; activity at 100 µM [12]: 77.6%
NC1C2CC3CC(C2)CC1C3 (centres unmarked) [MMV180402] | 83.1 | 84.6 | 88.7 | 76 | 78 | – | – | – | activity at 100 µM [13]: 78.9%; activity at 100 µM [14]: 67.8%; activity at 100 µM [15]: 87.1%
O=C(CC1Sc2ncnn2C1=O)Nc1ccc(Br)cc1 (centres unmarked) [MMV214956] | 63.2 | 56.2 | 60 | 73.5 | -1.13 | -7.27 | -0.0182 | 3.91 | –
O=C(O)CSc1cc(NS(=O)(=O)c2cccc3cccnc23)c2ccccc2c1O [MMV218827] | – | – | – | – | – | – | – | – | activity at 25 µM [16]: 91.4%; activity at 25 µM [17]: 90.9%; activity at 25 µM [18]: 95.2%; activity at 25 µM [19]: 88.2%; activity at 100 µM [20]: 89.8%; activity at 100 µM [21]: 82.4%; activity at 100 µM [22]: 84.7%; activity at 100 µM [23]: 102%
O=C(O)c1cc(-c2ccc(Br)cc2)nc2ccc(Cl)cc12 [MMV247764] | – | – | – | – | – | – | – | – | activity at 25 µM [16]: 73.4%; activity at 25 µM [17]: 82.6%; activity at 25 µM [18]: 78.8%; activity at 25 µM [19]: 58.9%; activity at 100 µM [20]: 54.4%; activity at 100 µM [21]: 60.9%; activity at 100 µM [22]: 52.4%; activity at 100 µM [23]: 49.8%
O=S(=O)(Nc1ccc(O)cc1)c1cccc2cccnc12 [MMV251679] | 86.4 | 84.9 | 92.9 | 81.3 | 91.6 | – | – | – | activity at 100 µM [13]: 98.4%; activity at 100 µM [14]: 87.2%; activity at 100 µM [15]: 89.3%
CCN1CCN(Cc2nc3ccc([N+](=O)[O-])cc3c(=O)n2-c2ccccc2F)CC1 [MMV275100] | – | – | – | – | – | – | – | – | activity at 25 µM [16]: 81.2%; activity at 25 µM [17]: 83%; activity at 25 µM [18]: 93.5%; activity at 25 µM [19]: 67.1%; activity at 100 µM [20]: 72.6%; activity at 100 µM [21]: 70.7%; activity at 100 µM [22]: 69.8%; activity at 100 µM [23]: 77.1%
Oc1ccc2[nH]c(-c3ccccc3)nc2c1 [MMV292173] | – | 82.5 | 95.1 | 92 | – | – | – | – | activity at 25 µM [8]: 89.9%; activity at 100 µM [9]: 93.2%; activity at 100 µM [10]: 100%; activity at 100 µM [11]: 85.4%; activity at 100 µM [12]: 94.1%
COc1ccc(CNC(=O)C(NS(=O)(=O)c2ccc3nc(C)sc3c2)C(C)C)cc1 (centres unmarked) [MMV303733] | 91.8 | 74.6 | 73.6 | 127 | 75.7 | 82.2 | 77.4 | 67.5 | –
COc1ccc(NC(=O)c2cc3ccccn3n2)cc1 [MMV374187] | 100 | 94.6 | 115 | 90.7 | 65.8 | 52 | 60.6 | 84.9 | –
Oc1cc(-c2cccc3ccccc23)[nH]n1 [MMV422940] | – | 89.3 | 79.4 | 70.9 | – | – | – | – | activity at 25 µM [24]: 79.9%; activity at 100 µM [25]: 81.4%; activity at 100 µM [26]: 88.2%; activity at 100 µM [27]: 73.6%; activity at 100 µM [28]: 82.2%
O=C(O)C(Cc1c[nH]c2ccccc12)N1C(=O)c2ccccc2C1=O (centres unmarked) [MMV452821] | 80.9 | 99.3 | 91 | 52.5 | 96.8 | 102 | 95.7 | 92.9 | –
NC(=O)c1ccccc1NC(=O)c1ccc(C(=O)Nc2ccccc2C(N)=O)cc1 [MMV508427] | – | – | – | – | – | – | – | – | activity at 25 µM (mean of three, M. mycetomatis MM55, read-out: Percentage survival at 25um, 25 uM mean): 86.7%; activity at 25 µM (replicate A, M. mycetomatis MM55, read-out: Percentage survival at 25um, 25 um A): 92%; activity at 25 µM (replicate B, M. mycetomatis MM55, read-out: Percentage survival at 25um, 25 uM B): 87.7%; activity at 25 µM (replicate C, M. mycetomatis MM55, read-out: Percentage survival at 25um, 25 uM C): 80.3%; activity at 100 µM (mean of three, M. mycetomatis MM55, read-out: Percentage survival at 100um, 100 uM mean): 95.7%; activity at 100 µM (replicate 1, M. mycetomatis MM55, read-out: Percentage survival at 100um, 100 uM A (first replicate column)): 98.6%; Percent fungal survival at 100 µM (replicate 2, M. mycetomatis MM55): 92.7%; activity at 100 µM (replicate 3, M. mycetomatis MM55, read-out: Percentage survival at 100um, 100 uM A (third replicate column)): 95.8%
O=C(c1cc(O)nc2ccccc12)N1CCN(c2ccccc2)CC1 [MMV596723] | 81.5 | 85.3 | 92.8 | 66.3 | 79.5 | – | – | – | activity at 100 µM [13]: 83.7%; activity at 100 µM [14]: 80.5%; activity at 100 µM [15]: 74.4%
COc1ccc(-n2cnc3cc(NCc4ccco4)ccc32)cc1 [MMV617332] | 61.8 | 70.4 | 107 | 7.47 | 7.71 | – | – | – | activity at 100 µM [13]: 18.3%; activity at 100 µM [14]: 3.66%; activity at 100 µM [15]: 1.23%
CN(Cc1ccc(C(C)(C)C)cc1)Cc1cccc2ccccc12 [MMV637104] | – | 58.2 | -0.523 | 64.9 | – | – | – | – | activity at 25 µM [24]: 40.9%; activity at 100 µM [25]: 61.2%; activity at 100 µM [26]: 61.4%; activity at 100 µM [27]: 65.7%; activity at 100 µM [28]: 56.6%
OC[C@@H]1CC[C@H](n2cnc3c(O)ncnc32)O1 [MMV637306] | 91.8 | 101 | 91 | 83.2 | 87.3 | – | – | – | activity at 100 µM [13]: 90.3%; activity at 100 µM [14]: 80.5%; activity at 100 µM [15]: 91.2%
CC1CCc2c(N3CCC(O)CC3)c(F)cc3c(=O)c(C(=O)O)cn1c23 (centres unmarked) [MMV637659] | – | 77.6 | 95.3 | 93 | – | – | – | – | activity at 25 µM [8]: 88.6%; activity at 100 µM [9]: 77.8%; activity at 100 µM [10]: 65.4%; activity at 100 µM [11]: 81.1%; activity at 100 µM [12]: 86.9%
